According to the RepoRT retention time repository:
Counter-ions that a name gives are not always drawn.

test: RP, Waters ACQUITY UPLC HSS T3, 150 × 2.1 mm, 1.8 µm, 45 °C, 0.6 mL/min, estimated dead time 0.55 min; A: water + 0.1% formic acid, pH 3; B: acetonitrile + 0.1% formic acid, pH 3; gradient (min/%B) 0/1 0.1/1 10/55 10.15/65 10.30/75 10.45/85 10.60/95 10.70/100 11/100 11.55/100 11.65/1 11.70/1 11.80/1 11.90/1 12/1 12.10/1 12.15/1 12.65/1; conditions: stereoisomer not certain

Row | LC retention time | SMILES
1 | 1.38 min | O=C(O)CC(CC(=O)O)C(=O)O [1,2,3-Propanetricarboxylic acid]
2 | 2.95 min | Cn1c(=O)c2c([nH]c(=O)n2C)n(C)c1=O [1,3,7-Trimethyluric acid]
3 | 2.57 min | Cn1c(=O)[nH]c2[nH]c(=O)n(C)c2c1=O [1,7-Dimethyluric acid]
4 | 3.16 min | O=C(O)c1cc(O)ccc1O [2,5-Dihydroxybenzoic acid]
5 | 3.76 min | O=C(O)c1c(O)cccc1O [2,6-Dihydroxybenzoic acid]
6 | 2.45 min | CCC(C)(O)C(=O)O (centres undefined) [2-Hydroxy-2-methylbutyric acid]
7 | 2.74 min | CC(C)C(O)C(=O)O (centres undefined) [2-Hydroxy-3-methylbutyric acid]
8 | 1.62 min | CC(C)(O)C(=O)O [2-Hydroxyisobutyric acid]
9 | 4.11 min | O=C(O)Cc1ccccc1O [2-Hydroxyphenylacetic acid]
10 | 2.8 min | CC(CCC(=O)O)C(=O)O (centres undefined) [2-Methylglutaric acid]
11 | 2.35 min | O=C(O)c1cc(O)cc(O)c1 [3,5-Dihydroxybenzoic acid]
12 | 1.94 min | Cn1c(=O)[nH]c(=O)c2c1[nH]c(=O)n2C [3,7-Dimethyluric acid]
13 | 8.1 min | CCCc1oc(CCC(=O)O)c(C(=O)O)c1C [3-Carboxy-4-methyl-5-propyl-2-furanpropionic acid (CMPF)]
14 | 1.55 min | CC(O)(CC(=O)O)CC(=O)O [3-Hydroxy-3-methylglutaric acid]
15 | 2.73 min | O=C(O)CNC(=O)c1cccc(O)c1 [3-Hydroxyhippuric acid]
16 | 1.59 min | CC(CO)C(=O)O (centres undefined) [3-Hydroxyisobutyric acid]
17 | 2.1 min | CC(C)(O)CC(=O)O [3-Hydroxyisovaleric acid]
18 | 3.74 min | O=C(O)Cc1cccc(O)c1 [3-Hydroxyphenylacetic acid]
19 | 3.22 min | CCC(C)C(=O)C(=O)O (centres undefined) [3-Methyl-2-oxovaleric acid]
20 | 2.66 min | CC(CC(=O)O)CC(=O)O [3-Methylglutaric acid]
21 | 5.73 min | CCc1ccc(OS(=O)(=O)O)cc1 [4-Ethylphenylsulfate]
22 | 3.16 min | O=C(O)c1ccc(O)cc1 [4-Hydroxybenzoic acid]

Row | LC retention time | SMILES
23 | 4.35 min | O=C(O)C=Cc1ccc(O)cc1 [4-Hydroxycinnamic acid]
24 | 2.45 min | O=C(O)CNC(=O)c1ccc(O)cc1 [4-Hydroxyhippuric acid]
25 | 3.41 min | O=C(O)Cc1ccc(O)cc1 [4-Hydroxyphenylacetic acid]
26 | 2.81 min | O=C(O)C(O)Cc1ccc(O)cc1 (centres undefined) [4-Hydroxyphenyllactic acid]
27 | 2.81 min | O=S(=O)(O)Oc1ccc2[nH]ccc2c1 [5-Hydroxyindole sulfate]
28 | 8.65 min | CC(CCC(=O)O)C1CCC2C3C(=O)CC4CC(O)CCC4(C)C3CC(O)C12C (centres undefined) [7-Ketodeoxycholic acid]
29 | 2.05 min | Cn1c[n+](C2OC(CO)C(O)C2O)c2nc(N)[nH]c(=O)c21 (centres undefined) [7-Methylguanosine]
30 | 8.58 min | CC(CC(=O)O)C1CCC2C3C(O)CC4CC(O)CCC4(C)C3CC(O)C12C (centres undefined) [23-Norcholic acid]
31 | 1.9 min | CC1=CC(=O)NS(=O)(=O)O1 [Acesulfame]
32 | 1.92 min | CC(=O)Nc1ccc(OC2OC(C(=O)O)C(O)C(O)C2O)cc1 (centres undefined) [Acetaminophen glucuronide]
33 | 2.26 min | CC(=O)Nc1ccc(OS(=O)(=O)O)cc1 [Acetaminophen sulfate]
34 | 1.62 min | Nc1ncnc2c1ncn2C1OC2COP(=O)(O)OC2C1O (centres undefined) [Adenosine 3',5'-cyclic monophosphate]
35 | 2.59 min | O=C(O)CCCCC(=O)O [Adipic acid]
36 | 5.48 min | O=C(O)CCCCCCCC(=O)O [Azelaic acid]
37 | 9.75 min | CC(CCC(=O)O)C1CCC2C3C(O)CC4CC(O)CCC4(C)C3CC(O)C12C (centres undefined) [Cholic acid]
38 | 1.3 min | O=C(O)C=C(CC(=O)O)C(=O)O [Cis-aconitic acid]
39 | 1.73 min | CC(=CC(=O)O)C(=O)O [Citraconic acid]
40 | 1.12 min | O=C(O)CC(O)(CC(=O)O)C(=O)O [Citric acid]
41 | 10.9 min | CC(CCC(=O)O)C1CCC2C3CCC4CC(O)CCC4(C)C3CC(O)C12C (centres undefined) [Deoxycholic acid]
42 | 1.72 min | O=C(O)c1cc(O)c(O)c(O)c1 [Gallic acid]
43 | 1.86 min | O=C(O)CCCC(=O)O [Glutaric acid]
44 | 8.4 min | CC(CCC(=O)NCC(=O)O)C1CCC2C3C(O)CC4CC(O)CCC4(C)C3CC(O)C12C (centres undefined) [Glycocholic acid]

Row | LC retention time | SMILES
45 | 8.94 min | CC(CCC(=O)NCC(=O)O)C1CCC2C3CCC4CC(OS(=O)(=O)O)CCC4(C)C3CC(O)C12C (centres undefined) [Glycodeoxycholic acid-3-sulfate]
46 | 10.1 min | CC(CCC(=O)NCC(=O)O)C1CCC2C3CCC4CC(O)CCC4(C)C3CC(O)C12C (centres undefined) [Glycodeoxycholic acid]
47 | 10.2 min | CC(CCC(=O)NCC(=O)O)C1CCC2C3CCC4CC(OS(=O)(=O)O)CCC4(C)C3CCC12C (centres undefined) [Glycolithocholic acid-3-sulfate]
48 | 8.4 min | CC(CCC(=O)NCC(=O)O)C1CCC2C3C(O)CC4CC(O)CCC4(C)C3CCC12C (centres undefined) [Glycoursodeoxycholic acid]
49 | 1.43 min | Nc1nc2c(ncn2C2OC(CO)C(O)C2O)c(=O)[nH]1 (centres undefined) [Guanosine]
50 | 3.8 min | COc1cc(CC(=O)O)ccc1O [Homovanillic acid]
51 | 1.2 min | O=c1[nH]cnc2nc[nH]c12 [Hypoxanthine]
52 | 8.62 min | CC(C)Cc1ccc(C(C)C(=O)OC2OC(C(=O)O)C(O)C(O)C2O)cc1 (centres undefined) [Ibuprofen acyl glucuronide]
53 | 4.86 min | O=C(O)C(O)Cc1c[nH]c2ccccc12 (centres undefined) [Indolelactic acid]
54 | 3.39 min | O=C(O)C1OC(Oc2c[nH]c3ccccc23)C(O)C(O)C1O (centres undefined) [Indoxyl glucuronide]
55 | 3.4 min | O=S(=O)(O)Oc1c[nH]c2ccccc12 [Indoxyl sulfate]
56 | 1.61 min | O=c1[nH]cnc2c1ncn2C1OC(CO)C(O)C1O (centres undefined) [Inosine]
57 | 2.07 min | CC(C)C(=O)NCC(=O)O [Isobutyrylglycine]
58 | 0.77 min | O=C(O)CC(C(=O)O)C(O)C(=O)O (centres undefined) [Isocitric acid]
59 | 3.52 min | CC(C)CC(=O)C(=O)O [Ketoleucine]
60 | 0.71 min | O=C1O[C@H]([C@@H](O)CO)C(O)=C1OS(=O)(=O)O [L-Ascorbic acid 2-sulfate]
61 | 0.752 min | O=C(O)CC(O)C(=O)O (centres undefined) [Malic acid]
62 | 2.19 min | CC(CC(=O)O)C(=O)O (centres undefined) [Methylsuccinic acid]
63 | 0.92 min | CC(=O)NCCC(=O)NC(Cc1cnc[nH]1)C(=O)O [N-Acetyl-L-carnosine]
64 | 1 min | CC(=O)NC(CC(=O)O)C(=O)O (centres undefined) [N-Acetylaspartic acid]
65 | 0.978 min | CC(=O)NC(CCC(N)=O)C(=O)O (centres undefined) [N-Acetylglutamine]
66 | 4.03 min | CCC(C)C(NC(C)=O)C(=O)O (centres undefined) [N-Acetylisoleucine]

Row | LC retention time | SMILES
67 | 4.66 min | CC(=O)NC(Cc1ccccc1)C(=O)O (centres undefined) [N-Acetylphenylalanine]
68 | 4.96 min | CC(=O)NC(Cc1c[nH]c2ccccc12)C(=O)O (centres undefined) [N-Acetyltryptophan]
69 | 2.97 min | CC(=O)NC(Cc1ccc(O)cc1)C(=O)O (centres undefined) [N-Acetyltyrosine]
70 | 3.07 min | CC(C)CC(=O)NCC(=O)O [N-Isovaleroylglycine]
71 | 1.35 min | CC(=O)NC(CCC(=O)O)C(=O)O (centres undefined) [N-acetylglutamic acid]
72 | 0.91 min | CC(=O)NC(CCCN=C(N)N)C(=O)O [Na-Acetyl-L-arginine]
73 | 1.5 min | NC(Cc1ccc(OS(=O)(=O)O)cc1)C(=O)O (centres undefined) [O-Sulfotyrosine]
74 | 0.81 min | O=C(O)c1cc(=O)[nH]c(=O)[nH]1 [Orotic acid]
75 | 2.31 min | CC(C)(CO)C(O)C(=O)NCCC(=O)O (centres undefined) [Pantothenic acid]
76 | 3.01 min | O=S(=O)(O)Oc1ccccc1 [Phenol sulfate]
77 | 4.01 min | O=C(O)CNC(=O)Cc1ccccc1 [Phenylacetylglycine]
78 | 2.05 min | NC(Cc1ccccc1)C(=O)O (centres undefined) [Phenylalanine]
79 | 4.51 min | O=C(O)C(O)Cc1ccccc1 (centres undefined) [Phenyllactic acid]
80 | 3.46 min | O=C(O)CCCCCC(=O)O [Pimelic acid]
81 | 9.23 min | CC(O)C1CCC2C3CCC4CC(OC5OC(C(=O)O)C(O)C(O)C5O)CCC4(C)C3CCC12C (centres undefined) [Pregnanediol-3-glucuronide]
82 | 9.81 min | CC(=O)C1CCC2C3CC=C4CC(OS(=O)(=O)O)CCC4(C)C3CCC12C (centres undefined) [Pregnenolone sulfate]
83 | 1.25 min | O=C1CCC(C(=O)O)N1 (centres undefined) [Pyroglutamic acid]
84 | 2.49 min | NC(CCCCn1c(C=O)ccc1CO)C(=O)O (centres undefined) [Pyrraline]
85 | 3.82 min | Cc1cc2nc3c(=O)[nH]c(=O)nc-3n(CC(O)C(O)C(O)CO)c2cc1C (centres undefined) [Riboflavin]

Row | SMILES | LC retention time
86 | CC12CCC3C(CC=C4CC(OS(=O)(=O)O)CCC43C)C1CCC2=O (centres undefined) [Dehydroepiandrosterone sulfate] | 7.92 min
87 | CC12CCC3C(CC=C4CC(OC5OC(C(=O)O)C(O)C(O)C5O)CCC43C)C1CCC2=O (centres undefined) [Dehydroisoandrosterone 3-glucuronide] | 7.43 min
88 | NCCc1ccc(O)c(OS(=O)(=O)O)c1 [Dopamine 3-O-sulfate] | 1.56 min
89 | NCCc1ccc(OS(=O)(=O)O)c(O)c1 [Dopamine 4-O-sulfate] | 1.49 min
